Like-named read-outs stand apart in the source and are kept apart here.
Columns and labels:
Escherichia coli (Ec) = test: Minimum inhibitory concentration (MIC) in nutrient agar; type: cell-based, Escherichia coli ATCC 11229; details: 48 h
Protocol: (§1) The minimum inhibitory concentration (MIC) for the compounds listed in Table I is determined for 9 bacteria, using nutrient agar: and 7 yeast and fungi, using malt yeast agar. A one percent solution of the test compound is prepared in a mixture of acetone and water. Nutrient agar is prepared at pH 6.8, representing a neutral medium, and at pH 8.2, representing an alkaline medium. The nutrient agars are prepared by adding 23 g of nutrient agar to one-liter of deionized water. In addition, the alkaline medium is prepared by adjusting a 0.04M solution of N-[tris-(hydroxymethyl)methyl]-glycine buffered deionized water with concentrated sodium hydroxide to a pH of […]. Malt yeast agar is prepared by adding 3 g yeast extract and 45 g malt agar per liter of deionized water. The specific agar is dispensed in 30 ml aliquots into 25×200 mm test tubes, capped and autoclaved for 15 minutes at 115° C. The test tubes containing the agar are cooled in a water bath until the temperature of the agar is 48° C. Then, an appropriate amount of the one percent solution of the test compound is added (except in the controls where no compound is added) to the respective test tubes so that the final concentrations are 500, 250, 100, 50, 25, 10, 5, 2.5, 1.0 and zero parts per million of the test compound in the agar, thus having a known concentration of test compound dispersed therein. The contents of the test tubes are then transferred to respective petri plates. After drying for 24 hours, the petri plates containing nutrient agar are inoculated with bacteria and those containing malt yeast agar are inoculated with yeast and fungi.
(§2) The inoculation with bacteria is accomplished by using the following procedure. Twenty-four hour-cultures of each of the bacteria are prepared by incubating the respective bacteria in tubes containing nutrient broth for 24 hours at 30° C. in a shaker. Dilutions of each of the 24 hour-cultures are made so that nine separate suspensions (one for each of the nine test bacteria) are made, each containing 10^8 colony forming units (CFU) per ml of suspension of a particular bacteria. Aliquots of 0.3 ml of each of the bacterial suspensions are used to fill the individual wells of Steer's Replicator. For each microbial suspension, 0.3 ml was used to fill three wells (i.e., three wells of 0.3 ml each) so that for the nine different bacteria, 27 wells are filled. The Steer's Replicator is then used to inoculate both the neutral and alkaline pH nutrient agar petri plates.
(§3) The inoculated petri plates are incubated at 30° C. for 48 hours and then read to determine if the test compound which is incorporated into the agar prevented growth of the respective bacteria.
(§4) Table II lists the bacteria, yeast and fungi used in the MIC test described above along with their respective American Type Culture Collection (ATCC) identification numbers.

[1] = tested on: Enterobacter aerogenes (Ea); test: as above; type: cell-based, Enterobacter aerogenes ATCC 13048; details: Klebsiella aerogenes, 48 h
Protocol: as §1, §2, §3, §4

[2] = tested on: Aureobasidium pullulan (Ap); test: Minimum inhibitory concentration (MIC) in malt yeast agar; type: cell-based, Aureobasidium pullulan ATCC 16622; details: read-out: Minimum Inhibitory Concentration, Ap
Protocol: as §1
(§5) The inoculation with the yeast and fungi is accomplished as follows. Cultures of yeast and fungi are incubated for seven days on malt yeast agar at 30° C. These cultures are used to prepare suspensions by the following procedure. A suspension of each organism is prepared by adding 10 ml of sterile saline and 10 microliters of octylphenoxy polyethoxy ethanol to the agar slant of yeast or fungi. The sterile saline/octylphenoxy polyethoxy ethanol solution is then agitated with a sterile swab to suspend the microorganism grown on the slant. Each resulting suspension is diluted into sterile saline (1 part suspension: 9 parts sterile saline). Aliquots of these dilutions are placed in individual wells of Steer's Replicator and petri plates inoculated as previously described. The petri plates are incubated at 30° C. and read after 48 hours for yeast and 72 hours for fungi.
as §4

[3] = tested on: Salmonella choleraesuis (Sc); test: Minimum inhibitory concentration (MIC) in nutrient agar; type: cell-based, Salmonella choleraesuis ATCC 10708; details: Salmonella enterica, 48 h
Protocol: as §1, §2, §3, §4

[4] = tested on: Staphylococcus aureus (Sa); test: as above; type: cell-based, Staphylococcus aureus ATCC 6538
Protocol: as §1, §2, §3, §4

Proteus vulgaris (Pv) = test: as above; type: cell-based, Proteus vulgaris ATCC 881; details: 48 h
Protocol: as §1, §2, §3, §4

Fusarium oxysporum (Fo) = test: Minimum inhibitory concentration (MIC) in malt yeast agar; type: cell-based, Fusarium oxysporum ATCC 48112; details: malt yeast agar; 30° C.; 72 hours for fungi; read-out: Minimum Inhibitory Concentration, Fo
Protocol: as §1, §5, §4

Aspergillus niger (An) = test: as above; type: cell-based, Aspergillus niger ATCC 16404; details: malt yeast agar; 30° C.; 72 hours for fungi; read-out: Minimum Inhibitory Concentration, An
Protocol: as §1, §5, §4

Candida albicans (Ca) = test: as above; type: cell-based, Candida albicans ATCC 10231; details: malt yeast agar; 30° C.; 48 hours for yeast; read-out: Minimum Inhibitory Concentration, Ca
Protocol: as §1, §5, §4

Bacillus subtilis (Bs) = test: Minimum inhibitory concentration (MIC) in nutrient agar; type: cell-based, Bacillus subtilis ATCC 8473
Protocol: as §1, §2, §3, §4

[5] = tested on: Klebsiella pneumoniae (Kp); test: as above; type: cell-based, Klebsiella pneumoniae ATCC 8308
Protocol: as §1, §2, §3, §4

[6] = tested on: Saccharomyces cerevisiae (Sc); test: Minimum inhibitory concentration (MIC) in malt yeast agar; type: cell-based, Saccharomyces cerevisiae ATCC 4105; details: malt yeast agar, 30° C., 48 hours for yeast, read-out: Minimum Inhibitory Concentration, Sc
Protocol: as §1, §5, §4

Trichoderma viride (Tv) = test: as above; type: cell-based, Trichoderma viride ATCC 8678; details: malt yeast agar; 30° C.; 72 hours for fungi; read-out: Minimum Inhibitory Concentration, Tv
Protocol: as §1, §5, §4

[7] = tested on: Pseudomonas aeruginosa (PRD-10); test: Minimum inhibitory concentration (MIC) in nutrient agar; type: cell-based, Pseudomonas aeruginosa ATCC 15442; details: 48 h
Protocol: as §1, §2, §3, §4

[8] = tested on: Pseudomonas aeruginosa (Pa); test: as above; type: cell-based, Pseudomonas aeruginosa ATCC 10145; details: 48 hours
Protocol: as §1, §2, §3, §4

[9] = tested on: Penicillium chrysogenum (Pc); test: Minimum inhibitory concentration (MIC) in malt yeast agar; type: cell-based, Penicillium chrysogenum ATCC 9480; details: malt yeast agar; 30° C.; 72 hours for fungi; read-out: Minimum Inhibitory Concentration, Pc
Protocol: as §1, §5, §4

[10] = pH 6.8, read-out: Minimum Inhibitory Concentration, Ec
[11] = pH 8.2, read-out: Minimum Inhibitory Concentration, Ec
[12] = pH 6.8, read-out: Minimum Inhibitory Concentration, Ea
[13] = pH 8.2, read-out: Minimum Inhibitory Concentration, Ea
[14] = pH 6.8, read-out: Minimum Inhibitory Concentration, Sc
[15] = pH 8.2, read-out: Minimum Inhibitory Concentration, Sc
[16] = 48 h, pH 8.2, read-out: Minimum Inhibitory Concentration, Sa
[17] = pH 6.8, nutrient agar, 30° C., 48 hours, read-out: Minimum Inhibitory Concentration, Sa
[18] = pH 6.8, read-out: Minimum Inhibitory Concentration, Pv
[19] = pH 8.2, read-out: Minimum Inhibitory Concentration, Pv
[20] = 48 h, pH 6.8, read-out: Minimum Inhibitory Concentration, Bs
[21] = 48 h, pH 8.2, read-out: Minimum Inhibitory Concentration, Bs
[22] = 48 h, pH 8.2, read-out: Minimum Inhibitory Concentration, Kp
[23] = pH 6.8, nutrient agar, 30° C., 48 hours, read-out: Minimum Inhibitory Concentration, Kp
[24] = pH 6.8, read-out: Minimum Inhibitory Concentration, PRD
[25] = pH 8.2, read-out: Minimum Inhibitory Concentration, PRD

Measured: MIC

N#CC(C#N)=C1Sc2nc3ccc(C#N)cc3nc2S1 [S, 6-cyano-1,3-dithiolo-(4,5-b)-quinoxaline-2-ylidene-propanedinitrile]
> 500 mg/L: Escherichia coli (Ec); [10] | Escherichia coli (Ec); [11] | [1]; [12] | [1]; [13] | [3]; [14] | [3]; [15] | [4]; [16] | [4]; [17] | Proteus vulgaris (Pv); [18] | Proteus vulgaris (Pv); [19] | Bacillus subtilis (Bs); [20] | Bacillus subtilis (Bs); [21] | [5]; [22] | [5]; [23] | Trichoderma viride (Tv) | [7]; [24] | [7]; [25] | [8]; pH 6.8, 30° C. | [8]; pH 8.2, 30° C.
500 mg/L: Fusarium oxysporum (Fo) | Candida albicans (Ca) | [6]
100 mg/L: [2]; malt yeast agar, 30° C., 48 hours for yeast and 72 hours for fungi | Aspergillus niger (An)

N#CC(C#N)=C1Sc2nc3ccc(C(F)(F)F)cc3nc2S1 [T, 6-trifluoromethyl-1,3-dithiolo-(4,5-b)-quinoxaline-2-ylidene-propanedinitrile]
250 mg/L: [9] | [2]
> 500 mg/L: Escherichia coli (Ec); [10] | Escherichia coli (Ec); [11] | [1]; [12] | [1]; [13] | [3]; [14] | [3]; [15] | [4]; [16] | [4]; [17] | Proteus vulgaris (Pv); [18] | Proteus vulgaris (Pv); [19] | Fusarium oxysporum (Fo) | Candida albicans (Ca) | Bacillus subtilis (Bs); [20] | Bacillus subtilis (Bs); [21] | [5]; [22] | [5]; [23] | [6] | Trichoderma viride (Tv) | [7]; [24] | [7]; [25] | [8]; pH 6.8, 30° C. | [8]; pH 8.2, 30° C.

N#CC1=C(C#N)Sc2nc3cc(C(=O)c4ccccc4)ccc3nc2S1 [V, 7-benzoyl-1,4-dithiino-(2,3-b)-quinoxaline-2,3-dicarbonitrile]
50 mg/L: [4]; 48 h, pH 6.8, read-out: Minimum Inhibitory Concentration, Sa | Bacillus subtilis (Bs); pH 6.8, nutrient agar, 30° C., 48 hours, read-out: Minimum Inhibitory Concentration, Bs
250 mg/L: [9] | [2]
500 mg/L: Fusarium oxysporum (Fo) | Candida albicans (Ca) | [6] | Trichoderma viride (Tv)
> 500 mg/L: Escherichia coli (Ec); [10] | Escherichia coli (Ec); [11] | [1]; [12] | [1]; [13] | [3]; [14] | [3]; [15] | [4]; [16] | Proteus vulgaris (Pv); [18] | Proteus vulgaris (Pv); [19] | Bacillus subtilis (Bs); [21] | [5]; [22] | [5]; [23] | [7]; [24] | [7]; [25] | [8]; pH 6.8, 30° C. | [8]; pH 8.2, 30° C.
